Reference: ChEMBL document CHEMBL5230082, “Recent advances in steroid amino acid conjugates: Old scaffolds with new dimensions” (Eur J Med Chem, 2020)
Values after ≈ are worked out from the molar mass of the structure shown.

Key:
[1] = Inhibition of Sialyltransferase (unknown origin); set-up: species or system Homo sapiens
Staphylococcus aureus [2] = experiment: Antibacterial activity against methicillin-resistant Staphylococcus aureus; format: functional
MDA-MB-231 = experiment: Anticancer activity against human MDA-MB-231 cells assessed as growth inhibition; format: functional
Escherichia coli = experiment: Antibacterial activity against Escherichia coli; format: functional
MCF7 = experiment: Antiproliferative activity against human MCF7 by MTT assay; format: functional, cell-based
[3] = molecular target: T1, Ileal sodium/bile acid cotransporter (Homo sapiens, UniProt Q12908); experiment: Binding affinity to ASBT (unknown origin) assessed as inhibition constant
T1 sequence (Q12908 whole entry): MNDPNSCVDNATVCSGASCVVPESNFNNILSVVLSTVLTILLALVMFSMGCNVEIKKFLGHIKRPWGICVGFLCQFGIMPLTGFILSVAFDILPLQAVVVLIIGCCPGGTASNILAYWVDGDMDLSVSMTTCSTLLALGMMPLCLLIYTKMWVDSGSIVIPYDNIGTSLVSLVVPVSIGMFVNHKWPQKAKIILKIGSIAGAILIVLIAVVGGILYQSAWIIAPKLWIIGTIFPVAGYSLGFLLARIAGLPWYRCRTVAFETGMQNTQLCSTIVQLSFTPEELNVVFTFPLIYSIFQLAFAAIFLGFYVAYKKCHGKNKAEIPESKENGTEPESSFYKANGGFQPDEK

[4] = molecular target: T2, Hepatic sodium/bile acid cotransporter (Homo sapiens, UniProt Q14973); experiment: Binding affinity to NTCP (unknown origin) assessed as inhibition constant
T2 sequence (Q14973 whole entry): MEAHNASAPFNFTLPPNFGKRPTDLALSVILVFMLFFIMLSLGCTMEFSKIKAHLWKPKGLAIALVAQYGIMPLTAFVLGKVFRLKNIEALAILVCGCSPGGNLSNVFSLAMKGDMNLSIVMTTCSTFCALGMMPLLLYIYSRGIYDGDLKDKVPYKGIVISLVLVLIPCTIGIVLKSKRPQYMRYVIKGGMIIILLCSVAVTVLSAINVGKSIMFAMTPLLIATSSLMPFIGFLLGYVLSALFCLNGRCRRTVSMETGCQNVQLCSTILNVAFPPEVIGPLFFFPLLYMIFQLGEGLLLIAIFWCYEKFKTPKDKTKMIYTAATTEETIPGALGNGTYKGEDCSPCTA

[5] = Anticancer activity against human U-87 MG cells assessed as growth inhibition; format: functional, U-87MG ATCC
Integrin alpha-M/beta-2 = Integrin alpha-M/beta-2 (Homo sapiens, UniProt P05107+P11215); experiment: Antagonist activity at integrin CD11B/CD18 (unknown origin); format: protein-complex assay
Shigella flexneri = experiment: Antibacterial activity against Shigella flexneri; format: functional
Salmonella typhimurium = experiment: Antibacterial activity against Salmonella enterica subsp. enterica serovar Typhimurium; format: functional
Pseudomonas aeruginosa = experiment: Antibacterial activity against Pseudomonas aeruginosa; format: functional
Klebsiella pneumoniae = experiment: Antibacterial activity against Klebsiella pneumoniae; format: functional
Acinetobacter baumannii = experiment: Antibacterial activity against Acinetobacter baumannii; format: functional
Bacillus subtilis = experiment: Antibacterial activity against Bacillus subtilis; format: functional
Staphylococcus aureus [6] = experiment: Antibacterial activity against Staphylococcus aureus; format: functional
Streptococcus pneumoniae = experiment: Antibacterial activity against Streptococcus pneumoniae; format: functional
Streptococcus oralis = experiment: Antibacterial activity against Streptococcus oralis; format: functional
Staphylococcus aureus [7] = experiment: Antibacterial activity against Staphylococcus aureus assessed as bacterial growth inhibition per disk; format: functional
Candida albicans = experiment: Antifungal activity against Candida albicans assessed as fungal growth inhibition per disk; format: functional
Globisporangium ultimum = experiment: Antifungal activity against Globisporangium ultimum assessed as fungal growth inhibition per disk; format: functional
Cladosporium cucumerinum [8] = experiment: Antifungal activity against Cladosporium cucumerinum assessed as zone of inhibition at 60 ug per disc; format: functional; conditions: read-out: DIZ
Cladosporium cucumerinum [9] = experiment: Antifungal activity against Cladosporium cucumerinum assessed as zone of inhibition at 30 ug per disc; format: functional; conditions: read-out: DIZ
Rattus norvegicus [10] = experiment: Antiarrhythmic activity in pentobarbital anesthetized rat model assessed as number of ventricular ectopics at 10 mg/kg, iv; format: functional
Rattus norvegicus [11] = experiment: Antiarrhythmic activity in pentobarbital anesthetized rat model assessed as ventricular fibrillation at 10 mg/kg, iv relative to control; format: functional

Chain of Integrin alpha-M/beta-2 (P05107 23-769 limits assumed, other chains not shown): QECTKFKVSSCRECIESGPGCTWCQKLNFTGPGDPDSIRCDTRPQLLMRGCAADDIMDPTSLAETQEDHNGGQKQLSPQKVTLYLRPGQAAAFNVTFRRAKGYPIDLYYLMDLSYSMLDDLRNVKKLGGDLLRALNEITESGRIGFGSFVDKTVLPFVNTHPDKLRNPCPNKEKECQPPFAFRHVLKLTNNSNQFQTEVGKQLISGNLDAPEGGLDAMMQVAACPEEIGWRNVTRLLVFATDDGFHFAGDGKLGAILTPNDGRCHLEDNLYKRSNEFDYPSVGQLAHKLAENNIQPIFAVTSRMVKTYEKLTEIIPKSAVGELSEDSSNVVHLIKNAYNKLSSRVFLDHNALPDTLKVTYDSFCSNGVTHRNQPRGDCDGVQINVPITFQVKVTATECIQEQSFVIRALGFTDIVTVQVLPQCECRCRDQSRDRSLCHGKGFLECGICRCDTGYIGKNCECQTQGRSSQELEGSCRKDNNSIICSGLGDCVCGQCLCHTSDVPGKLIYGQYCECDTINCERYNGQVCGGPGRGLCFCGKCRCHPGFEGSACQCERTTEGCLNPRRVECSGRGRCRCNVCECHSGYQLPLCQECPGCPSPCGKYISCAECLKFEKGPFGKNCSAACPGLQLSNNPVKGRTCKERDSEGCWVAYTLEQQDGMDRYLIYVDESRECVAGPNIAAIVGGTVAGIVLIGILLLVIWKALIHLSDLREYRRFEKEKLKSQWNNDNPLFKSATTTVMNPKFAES

## C[C@H](CCCn1cc(CCCC(=O)O)nn1)[C@H]1CC[C@H]2[C@@H]3CC[C@@H]4C[C@H](O)CC[C@]4(C)[C@H]3CC[C@]12C
[1]
  IC50: 5 µM

## COC(=O)CCCN[C@@H]1CC[C@@]2(C)[C@H](C1)C[C@@H](NCCCC(=O)OC)[C@@H]1[C@@H]2CC[C@]2(C)[C@@H]([C@H](C)CCCC(C)C)CC[C@@H]12
Staphylococcus aureus [2]
  MIC: 2 µg/mL (≈ 3.32 µM)

## C[C@H](CCC(=O)O)[C@H]1CC[C@H]2[C@@H]3CC[C@@H]4C[C@H](OC(=O)[C@H](N)CC(=O)O)CC[C@]4(C)[C@H]3CC[C@]12C
[1]
  IC50: 6 µM

## CC[C@H](C)[C@H](NC(=O)CC[C@@H](C)[C@H]1CC[C@H]2[C@@H]3[C@H](O)C[C@@H]4C[C@H](O)CC[C@]4(C)[C@H]3C[C@H](O)[C@]12C)C(=O)Nc1ccccc1
MDA-MB-231
  GI50: 1.35 µM

## POLYMYXIN B
Escherichia coli
  MIC: 1.8 µg/mL

## COC(=O)[C@H](CCCCNC(=O)CC[C@H](C)[C@H]1CC[C@H]2[C@@H]3[C@H](O)C[C@@H]4C[C@H](O)CC[C@]4(C)[C@H]3C[C@H](O)[C@]12C)NC(=O)CC[C@@H](C)[C@H]1CC[C@H]2[C@@H]3[C@H](O)C[C@@H]4C[C@H](O)CC[C@]4(C)[C@H]3C[C@H](O)[C@]12C
MCF7
  IC50: < 10 µM

## C[C@H](CCC(=O)N[C@@H](CCCCNC(=O)CC[C@H](C)[C@H]1CC[C@H]2[C@@H]3CC[C@@H]4C[C@H](O)CC[C@]4(C)[C@H]3C[C@H](O)[C@]12C)C(=O)O)[C@H]1CC[C@H]2[C@@H]3CC[C@@H]4C[C@H](O)CC[C@]4(C)[C@H]3C[C@H](O)[C@]12C
MCF7
  IC50: > 50 µM

## C[C@H](CCC(=O)N[C@@H](CCCCNC(=O)CC[C@H](C)[C@H]1CC[C@H]2[C@@H]3[C@H](O)C[C@@H]4C[C@H](O)CC[C@]4(C)[C@H]3C[C@H](O)[C@]12C)C(=O)O)[C@H]1CC[C@H]2[C@@H]3[C@H](O)C[C@@H]4C[C@H](O)CC[C@]4(C)[C@H]3C[C@H](O)[C@]12C
MCF7
  IC50: > 50 µM

## C[C@H](CCC(=O)NCC(=O)O)[C@H]1CC[C@H]2[C@@H]3[C@H](OC(=O)c4cccnc4)C[C@@H]4C[C@H](O)CC[C@]4(C)[C@H]3CC[C@]12C
[3]
  Ki: 15.6 µM
[4]
  Ki: 9.29 µM

## COc1cccc2c1C(=O)c1c(O)c3c(c(O)c1C2=O)C[C@@](O)(C(=O)CO)C[C@@H]3O[C@H]1C[C@H](N)[C@H](O)[C@H](C)O1 [DOXORUBICIN]
MDA-MB-231
  GI50: 1 µM
[5]
  GI50: 2.6 µM

## Cc1c(NC(=O)[C@H](C)NC(=O)CC[C@@H](C)[C@H]2CC[C@H]3[C@@H]4[C@H](O)C[C@@H]5C[C@H](O)CC[C@]5(C)[C@H]4C[C@H](O)[C@]23C)c(=O)n(-c2ccccc2)n1C
[5]
  GI50: 2.49 µM

## CC[C@H](C)[C@H](NC(=O)CC[C@@H](C)[C@H]1CC[C@H]2[C@@H]3[C@H](O)C[C@@H]4C[C@H](O)CC[C@]4(C)[C@H]3C[C@H](O)[C@]12C)C(=O)Nc1nc2ccccc2s1
MDA-MB-231
  GI50: 1.41 µM

## CO[C@H]1CC[C@@]2(C)[C@@H](CC[C@H]3[C@@H]2CC[C@@]2(C)[C@H]3C[C@H](C(=O)N[C@@H](CCCNC(=N)N)C(=O)NCC(=O)N[C@@H](CC(=O)O)C(=O)NCc3ccccc3)O[C@]23CCCO3)C1
Integrin alpha-M/beta-2
  IC50: 10.9 µM

## CCCCCCCCNCCC[C@@H](C)[C@H]1CC[C@H]2[C@@H]3[C@H](OCCCNC(=N)N)C[C@@H]4C[C@H](OCCCNC(=N)N)CC[C@]4(C)[C@H]3C[C@H](OCCCNC(=N)N)[C@]12C
Escherichia coli
  MIC: 1 µg/mL

## CCCCCCOC(=O)CC[C@@H](C)[C@H]1CC[C@H]2[C@@H]3[C@H](OC(=O)CN)C[C@@H]4C[C@H](OC(=O)CN)CC[C@]4(C)[C@H]3C[C@H](OC(=O)CN)[C@]12C
Escherichia coli
  MIC99: 4 µM (≈ 2.66 µg/mL)
Shigella flexneri
  MIC99: 4 µM (≈ 2.66 µg/mL)
Salmonella typhimurium
  MIC99: 4 µM (≈ 2.66 µg/mL)
Pseudomonas aeruginosa
  MIC99: 4 µM (≈ 2.66 µg/mL)
Klebsiella pneumoniae
  MIC99: 4 µM (≈ 2.66 µg/mL)
Acinetobacter baumannii
  MIC99: 4 µM (≈ 2.66 µg/mL)
Bacillus subtilis
  MIC: 4 µM (≈ 2.66 µg/mL)
Staphylococcus aureus [6]
  MIC: 4 µM (≈ 2.66 µg/mL)
Streptococcus pneumoniae
  MIC: 4 µM (≈ 2.66 µg/mL)
Streptococcus oralis
  MIC: 4 µM (≈ 2.66 µg/mL)

## CC(C)[C@H](N)C(=O)NCC(=O)OO[C@H]1C[C@H]2[C@@H]([C@H](OC(=O)CNC(=O)[C@@H](N)C(C)C)C[C@@H]3C[C@H](OC(=O)CNC(=O)[C@@H](N)C(C)C)CC[C@@]32C)[C@@H]2CC[C@H]([C@H](C)CCC(=O)OCc3ccccc3)[C@@]12C
Escherichia coli
  MIC: 8 µM
Klebsiella pneumoniae
  MIC: 16 µM (≈ 15.7 µg/mL)
Acinetobacter baumannii
  MIC: 16 µM (≈ 15.7 µg/mL)

## C[C@H](CCC(=O)NCC(=O)O)[C@H]1CC[C@H]2[C@@H]3[C@@H](OC(=O)c4ccc(F)cc4)C[C@@H]4C[C@H](O)CC[C@]4(C)[C@H]3CC[C@]12C
[3]
  Ki: 8.39 µM
[4]
  Ki: 2.55 µM

## CCCP(=O)(OCC)C(Cc1cn(CCC[C@@H](C)[C@H]2CC[C@H]3[C@@H]4CC[C@@H]5C[C@H](O)CC[C@]5(C)[C@H]4CC[C@]23C)nn1)C(=O)O (some centres not stated)
[1]
  IC50: 7 µM

## COC(=O)[C@H](CCCCNC(=O)CC[C@H](C)[C@H]1CC[C@H]2[C@@H]3CC[C@@H]4C[C@H](O)CC[C@]4(C)[C@H]3C[C@H](O)[C@]12C)NC(=O)CC[C@@H](C)[C@H]1CC[C@H]2[C@@H]3CC[C@@H]4C[C@H](O)CC[C@]4(C)[C@H]3C[C@H](O)[C@]12C
MCF7
  IC50: < 10 µM

## Cc1ccc(NC(=O)[C@H](C)NC(=O)CC[C@@H](C)[C@H]2CC[C@H]3[C@@H]4[C@H](O)C[C@@H]5C[C@H](O)CC[C@]5(C)[C@H]4C[C@H](O)[C@]23C)cc1
MDA-MB-231
  GI50: 4.52 µM
[5]
  GI50: 1.62 µM

## C=C(C(=O)N[C@H](C(=O)O)c1ccc(OC)cc1)C(C)CC[C@@H](C)[C@H]1CCC2=C3CC[C@H]4[C@H](C)[C@@H](OS(=O)(=O)O)CC[C@]4(C)[C@H]3CC[C@@]21C (some centres not stated)
Staphylococcus aureus [7]
  MIC: 100 µg
Candida albicans
  MIC: 75 µg
Globisporangium ultimum
  MIC: 25 µg
Cladosporium cucumerinum [8]
  zone of inhibition at 60 µg/disc: 8 mm
Cladosporium cucumerinum [9]
  zone of inhibition at 30 µg/disc: 10.1 mm

## CO[C@H]1CC[C@@]2(C)[C@@H](CC[C@H]3[C@@H]2CC[C@@]2(C)[C@H]3C[C@H](C(=O)N[C@@H](CCCNC(=N)N)C(=O)NCC(=O)N[C@@H](CC(=O)O)C(N)=O)O[C@]23CCCO3)C1
Integrin alpha-M/beta-2
  IC50: 6.5 µM

## C[C@]12C[C@H](O)[C@@H](NC(=O)CN)C[C@H]1CC[C@@H]1[C@@H]2CC[C@]2(C)C(=O)CC[C@@H]12
Rattus norvegicus [10]
  Activity: 172
Rattus norvegicus [11]
  Activity: 11%

## CCCCCCCCNCCC[C@@H](C)[C@H]1CC[C@H]2[C@@H]3[C@H](OCCCN)C[C@@H]4C[C@H](OCCCN)CC[C@]4(C)[C@H]3C[C@H](OCCCN)[C@]12C
Escherichia coli
  MIC: 1.5 µg/mL

## CC(C)[C@H](NC(=O)CC[C@@H](C)[C@H]1CC[C@H]2[C@@H]3[C@H](O)C[C@@H]4C[C@H](O)CC[C@]4(C)[C@H]3C[C@H](O)[C@]12C)C(=O)Nc1ccncc1
[5]
  GI50: 2.46 µM

## COC(=O)[C@H](CCCCNC(=O)CC[C@H](C)[C@H]1CC[C@H]2[C@@H]3CC[C@@H]4C[C@H](OC(C)=O)CC[C@]4(C)[C@H]3C[C@H](OC(C)=O)[C@]12C)NC(=O)CC[C@@H](C)[C@H]1CC[C@H]2[C@@H]3CC[C@@H]4C[C@H](OC(C)=O)CC[C@]4(C)[C@H]3C[C@H](OC(C)=O)[C@]12C
MCF7
  IC50: > 100 µM

## C[C@H](CCC(=O)NCC(=O)O)[C@H]1CC[C@H]2[C@@H]3[C@H](O)C[C@@H]4C[C@H](OC(=O)c5cccnc5)CC[C@]4(C)[C@H]3CC[C@]12C
[3]
  Ki: 6.45 µM
[4]
  Ki: 5.38 µM

## C[C@H](CCC(=O)NCC(=O)O)[C@H]1CC[C@H]2[C@@H]3[C@@H](OC(=O)c4cccnc4)C[C@@H]4C[C@H](O)CC[C@]4(C)[C@H]3CC[C@]12C
[3]
  Ki: 15.2 µM
[4]
  Ki: 11.8 µM

## C[C@H](CCC(=O)NCC(=O)O)[C@H]1CC[C@H]2[C@@H]3C(=O)C[C@@H]4C[C@H](O)CC[C@]4(C)[C@H]3CC[C@]12C
[3]
  Ki: 20.4 µM
[4]
  Ki: 4.21 µM
